Test [1] has as its system A. fumigatus (ATCC 13073). Nature of the test: Disseminated infection of neutropenic ICR mice, prophylaxis, survival. It is filed as in vivo, Aspergillus fumigatus. To be noted: 3 mg/kg IP 1 hr after infection. The method, then: Inoculum Preparation. A. fumigatus (ATCC 13073) growth was taken from 96 hr potato dextrose agar (PDA) and re-suspended in 0.1% Tween 20. The culture was resuspended in 1 mL cold PBS (>1.0×10^8 CFU/mL, OD620 2.3-2.8). The culture was then diluted in PBS to final cellular densities of 2.0×10^5 CFU/mL. The actual colony counts were determined by plating dilutions on PDA plates to confirm inoculation concentration. The actual inoculum count was 1.85×10^5 CFU/mL.
A. fumigatus (ATCC 13073) disseminated infection (IV). Groups of 6 female ICR mice weighing 22±2 g were used. Animals were immunosuppressed by three intraperitoneal (IP) injections of cyclophosphamide (the first at 6 mg/mouse 3 days before inoculation, the second and third at 2 mg/mouse on Day 1 then Day 4 after inoculation). On Day 0, animals were inoculated (0.1 mL/mouse) by intravenous (IV) injection into the tail vein with A. fumigatus (ATCC 13073), 1.85×10^4 CFU per mouse. CD101 at 5, 10 and 20 mg/kg as prophylaxis was administered subcutaneously (SC) once starting 5, 3 or 1 day before inoculation. […]
A 50 percent or more (≥50%) increase in the survival rate compared to the vehicle control group indicates significant anti-infective activity. The health observations including body weight, hunched posture, ruffled fur, immobility and hypothermia were recorded daily for 14 days. Animals found moribund were to be humanely sacrificed with CO2 asphyxiation in the study.

The next test relates to Candida auris. Kind of test: Murine model of disseminated candidiasis (immunosuppressed CD-1 mice), treatment. The test is classed as in vivo. Conditions: 0.3 mg/kg IP, 2 doses; Day 14. The procedure:
Female 6-8 week old CD-1 mice were immunosuppressed with cyclophosphamide (200 mg/kg) 3 days prior to infection and 150 mg/kg 1 day post-infection. On the day of infection, mice were inoculated with 3×10^7 C. auris blastospores via the lateral tail vein. Mice were randomized into 5 groups (n=5 for colony forming units (CFU) and n=10 for survival): CD101 20 mg/kg administered by intraperitoneal (IP) injection, fluconazole 20 mg/kg administered per os (PO), amphotericin B 0.3 mg/kg IP, and a vehicle control. Treatments were administered 2 hours post-infection (Day 1) and again on Day 4 of the study for a total of 2 doses. Mice were monitored daily and a survival curve was generated. CFU groups were sacrificed on Day 8 of the study. One kidney was removed from each mouse, homogenized, plated on potato dextrose agar (PDA), and incubated at 35° C. for 2 days to determine CFU. The remaining survival mice were monitored until the end of the study (Day 14).

Test [2] concerns A. fumigatus (ATCC 13073). Kind of test: Disseminated infection of immune competent DBA/2 mice, prophylaxis, survival. Conditions: 3 mg/kg IP 1 hour after infection. The test is classed as in vivo, Aspergillus fumigatus. The procedure:
A. fumigatus (ATCC 13073) growth was taken from 96 hour potato dextrose agar (PDA) and re-suspended in 0.1% Tween 20. The culture was resuspended in 1 mL cold PBS (>1.0×10^8 CFU/mL, OD620 2.3-2.8). The culture was then diluted in PBS to final cellular densities of 1.0×10^7 CFU/mL. The actual colony counts were determined by plating dilutions on PDA plates to confirm inoculation concentration. The actual inoculum count was 1.30×10^7 CFU/mL.
Groups of 6 immune competent female DBA/2 mice weighing 18±2 g were used. On Day 0, animals were inoculated (0.1 mL/mouse) by intravenous (IV) injection into the tail vein with A. fumigatus (ATCC 13073), 1.30×10^6 CFU per mouse. CD101 at 3, 10 and 30 mg/kg as prophylaxis was administered subcutaneously (SC) once starting 5, 3 or 1 day before inoculation. In addition, CD101 at 3 mg/kg SC and the reference, amphotericin B, at 3 mg/kg by intraperitoneal (IP) injection were administered one hour after infection (See Table 2).
A 50 percent or more (≥50%) increase in the survival rate compared to the vehicle control group indicates significant anti-infective activity. The health observations including body weight, hunched posture, ruffled fur, immobility and hypothermia were recorded daily for 14 days.

In the case of `C[C@@H]1[C@H](O)[C@@H](C)/C=C/C=C/C=C/C=C/C=C/C=C/C=C/[C@H](O[C@@H]2O[C@H](C)[C@@H](O)[C@H](N)[C@@H]2O)C[C@@H]2O[C@](O)(C[C@@H](O)C[C@@H](O)[C@H](O)CC[C@@H](O)C[C@@H](O)CC(=O)O[C@H]1C)C[C@H](O)[C@H]2C(=O)O` [amphotericin B, reference compound], the 14-day survival result in test [1] and in test [2] was “significant increase in the 14-day survival” throughout. In the test on Candida auris, the “percent survival at the end of the study” value was determined as 30%.
